Like-named read-outs stand apart in the source and are kept apart here.

The record followed here is US12473278B2 (Industry—University Cooperation Foundation Hangyang …, priority 2019, dated 2025).

Assay [1] has as its target T1, FLT3 (Homo sapiens (Human), UniProt P36888). The assay can be described thus: Measurement of FLT3 enzyme activity. In kind it is biochemical. From the text:
Measurement of FLT3 Enzyme Activity
A change in FLT3 enzyme activity by treatment with the benzimidazole derivatives of the following Table 1 according to the present invention was confirmed by IC50.

In the next assay the target is FMS (Homo sapiens (Human), UniProt P07333). The assay can be described thus: Kinase panel screening. In kind it is biochemical.
The next assay has as its system FLT3 (ITD). The assay can be described thus: Kinase panel screening. The following applies: single dose of 10 μM.
A further assay has as its target RAFI (Homo sapiens (Human), UniProt P04049). The assay can be described thus: Kinase panel screening. Particulars: read-out: % inhibition rate.
The target of assay [2] is T1, FLT3. The assay can be described thus: Kinase panel screening. The following applies: FLT3; single dose of 10 μM.
Excerpt: (§1) Measurement of Inhibitory Activity Against Various Protein Kinases
Another assay concerns the target FGFR3 (Homo sapiens (Human), UniProt P22607). The assay can be described thus: Kinase panel screening. The following applies: read-out: Staurosporine IC50; FGFR3; control compound per footnote b.
[3] abbreviates: FLT3 enzyme activity, read-out: FLT3 (IC50).
The mark [4] stands for this setting: FLT3 kinase activity, read-out: IC50 against FLT3.

T1 sequence (P36888 27-993): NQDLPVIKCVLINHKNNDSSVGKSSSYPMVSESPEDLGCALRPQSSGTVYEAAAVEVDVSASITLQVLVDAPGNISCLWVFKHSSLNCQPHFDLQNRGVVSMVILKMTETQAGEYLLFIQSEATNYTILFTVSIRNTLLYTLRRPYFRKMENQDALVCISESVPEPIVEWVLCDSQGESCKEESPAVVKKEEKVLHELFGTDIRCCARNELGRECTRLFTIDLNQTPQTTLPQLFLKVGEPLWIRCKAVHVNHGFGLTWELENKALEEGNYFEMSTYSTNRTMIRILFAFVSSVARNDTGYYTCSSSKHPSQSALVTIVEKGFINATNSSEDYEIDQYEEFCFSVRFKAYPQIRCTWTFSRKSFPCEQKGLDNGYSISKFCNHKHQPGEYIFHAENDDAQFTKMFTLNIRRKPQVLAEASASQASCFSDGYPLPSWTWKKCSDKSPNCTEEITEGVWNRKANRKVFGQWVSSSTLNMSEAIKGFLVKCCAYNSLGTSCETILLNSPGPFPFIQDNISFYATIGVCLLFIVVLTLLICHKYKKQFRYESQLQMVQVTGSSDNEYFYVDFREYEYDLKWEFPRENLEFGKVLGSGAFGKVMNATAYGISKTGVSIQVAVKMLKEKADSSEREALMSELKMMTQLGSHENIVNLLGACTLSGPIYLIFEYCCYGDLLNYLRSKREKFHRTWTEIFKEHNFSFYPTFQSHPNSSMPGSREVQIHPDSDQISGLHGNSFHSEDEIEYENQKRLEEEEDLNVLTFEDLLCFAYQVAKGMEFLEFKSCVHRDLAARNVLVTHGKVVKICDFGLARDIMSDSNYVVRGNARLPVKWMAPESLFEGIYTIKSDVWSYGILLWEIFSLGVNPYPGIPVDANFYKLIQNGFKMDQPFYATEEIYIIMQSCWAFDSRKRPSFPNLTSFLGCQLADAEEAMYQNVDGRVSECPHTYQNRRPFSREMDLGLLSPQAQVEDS
Sequence of FMS (P07333 20-972, species assumed): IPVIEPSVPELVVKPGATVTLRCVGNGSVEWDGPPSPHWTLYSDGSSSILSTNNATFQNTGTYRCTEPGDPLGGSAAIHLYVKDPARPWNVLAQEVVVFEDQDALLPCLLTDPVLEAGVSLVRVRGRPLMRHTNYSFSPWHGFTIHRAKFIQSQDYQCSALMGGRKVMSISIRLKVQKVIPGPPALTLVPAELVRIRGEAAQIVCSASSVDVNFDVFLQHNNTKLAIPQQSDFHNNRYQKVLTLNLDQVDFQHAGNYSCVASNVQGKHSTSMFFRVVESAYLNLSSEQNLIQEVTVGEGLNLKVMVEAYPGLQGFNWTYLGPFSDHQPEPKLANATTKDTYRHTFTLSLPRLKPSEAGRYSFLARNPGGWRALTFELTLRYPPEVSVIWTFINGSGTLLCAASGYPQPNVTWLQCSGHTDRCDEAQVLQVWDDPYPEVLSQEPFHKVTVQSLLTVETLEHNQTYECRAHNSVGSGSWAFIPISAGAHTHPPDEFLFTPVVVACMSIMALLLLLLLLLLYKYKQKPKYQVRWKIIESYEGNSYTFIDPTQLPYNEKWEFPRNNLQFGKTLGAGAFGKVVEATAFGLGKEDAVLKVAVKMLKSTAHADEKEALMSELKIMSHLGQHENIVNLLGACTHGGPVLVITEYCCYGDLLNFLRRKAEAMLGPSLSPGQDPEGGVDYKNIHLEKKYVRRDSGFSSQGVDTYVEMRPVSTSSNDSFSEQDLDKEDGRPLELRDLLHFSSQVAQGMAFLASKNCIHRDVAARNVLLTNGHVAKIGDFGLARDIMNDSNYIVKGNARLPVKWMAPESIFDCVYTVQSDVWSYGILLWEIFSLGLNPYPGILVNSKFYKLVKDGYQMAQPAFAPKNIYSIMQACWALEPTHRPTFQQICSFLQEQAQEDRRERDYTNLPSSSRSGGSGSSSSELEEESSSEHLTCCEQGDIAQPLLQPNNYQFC
Sequence of RAFI (P04049 whole entry): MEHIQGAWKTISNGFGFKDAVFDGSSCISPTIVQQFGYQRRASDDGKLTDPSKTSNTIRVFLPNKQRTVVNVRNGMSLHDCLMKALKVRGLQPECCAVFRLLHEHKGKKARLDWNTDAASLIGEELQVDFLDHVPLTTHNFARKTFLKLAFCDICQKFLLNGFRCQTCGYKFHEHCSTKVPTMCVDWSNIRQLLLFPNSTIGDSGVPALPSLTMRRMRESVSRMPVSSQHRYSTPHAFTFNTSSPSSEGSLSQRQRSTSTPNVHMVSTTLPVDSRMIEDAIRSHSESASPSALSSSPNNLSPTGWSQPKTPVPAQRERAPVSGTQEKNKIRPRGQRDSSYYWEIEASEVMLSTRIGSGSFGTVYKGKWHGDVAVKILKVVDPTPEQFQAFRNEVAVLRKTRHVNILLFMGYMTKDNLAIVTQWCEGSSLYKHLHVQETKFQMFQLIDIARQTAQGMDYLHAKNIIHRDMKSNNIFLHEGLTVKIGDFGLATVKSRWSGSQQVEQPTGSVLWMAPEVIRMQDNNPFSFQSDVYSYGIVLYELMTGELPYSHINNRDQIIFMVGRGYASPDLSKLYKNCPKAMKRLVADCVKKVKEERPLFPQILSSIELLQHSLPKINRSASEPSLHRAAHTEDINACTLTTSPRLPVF
Sequence of FGFR3 (P22607 23-806, species assumed): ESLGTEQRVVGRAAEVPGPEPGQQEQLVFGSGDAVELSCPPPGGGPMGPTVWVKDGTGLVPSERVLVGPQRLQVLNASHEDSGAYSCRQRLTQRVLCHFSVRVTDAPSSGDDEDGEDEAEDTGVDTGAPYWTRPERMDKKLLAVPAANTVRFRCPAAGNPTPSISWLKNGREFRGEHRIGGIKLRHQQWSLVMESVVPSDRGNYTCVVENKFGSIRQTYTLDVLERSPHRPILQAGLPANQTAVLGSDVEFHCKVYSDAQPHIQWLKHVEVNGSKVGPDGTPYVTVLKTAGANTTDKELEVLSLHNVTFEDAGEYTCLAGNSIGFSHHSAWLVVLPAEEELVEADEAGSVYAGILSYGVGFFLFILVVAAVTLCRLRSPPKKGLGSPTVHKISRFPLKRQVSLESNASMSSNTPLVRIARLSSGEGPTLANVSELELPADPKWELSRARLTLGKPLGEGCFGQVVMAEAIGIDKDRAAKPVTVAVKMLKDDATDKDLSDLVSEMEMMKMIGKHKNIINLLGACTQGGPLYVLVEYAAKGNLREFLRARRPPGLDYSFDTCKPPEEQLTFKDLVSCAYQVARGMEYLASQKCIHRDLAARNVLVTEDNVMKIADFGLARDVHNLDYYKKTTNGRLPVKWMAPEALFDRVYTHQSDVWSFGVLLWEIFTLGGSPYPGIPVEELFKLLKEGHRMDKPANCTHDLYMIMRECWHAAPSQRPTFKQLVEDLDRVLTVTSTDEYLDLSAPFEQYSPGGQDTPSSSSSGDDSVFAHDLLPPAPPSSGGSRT
Excerpt for FGFR3: as §1
Excerpt for FLT3 (ITD): as §1
Excerpt for RAFI: as §1

For `Cc1oncc1C(=O)Nc1ccc2[nH]c(-c3ccc(N4CCN(C)CC4)c(C(F)(F)F)c3)nc2c1` [Compound 5j, 5-methyl-N-(2-(4-(4-methylpiperazin-1-yl)-3-(trifluoromethyl)phenyl)-1H-benz[d]imidazol-5-yl)isoxazole-4-carboxamide], the IC50 on FLT3 [1] (setting [3]) is over 10 µM.

As to `Cc1oncc1C(=O)Nc1ccc2[nH]c(-c3cc(F)cc(C(F)(F)F)c3)nc2c1` [Compound 5h, N-(2-(3-fluoro-5-(trifluoromethyl)phenyl)-1H-benz[d]imidazol-5-yl)-5-methylisoxazole-4-carboxamide], the IC50 on FLT3 [1] (setting [3]) was over 10 µM.

`Cc1oncc1C(=O)Nc1ccc2[nH]c(C3CCCC3)nc2c1` [Compound 5p, N-(2-cyclopentyl-1H-benz[d]imidazol-5-yl)-5-methylisoxazole-4-carboxamide]: the IC50 on FLT3 [1] (setting [3]) was over 10 µM.

For `CCN1CCN(Cc2ccc(-c3nc4cc(NC(=O)c5cnoc5C)ccc4[nH]3)cc2C(F)(F)F)CC1` [Compound 5n, N-(2-(4-((4-ethylpiperazin-1-yl)methyl)-3-(trifluoromethyl)phenyl)-1H-benz[d]imidazol-5-yl)-5-methylisoxazole-4-carboxamide], on FLT3 [1] (setting [3]), the IC50 fell in the range of 3 to 10 µM.

Take `Cc1oncc1C(=O)Nc1ccc2[nH]c(-c3ccc(Cl)cc3)nc2c1` [Compound 5l, N-(2-(4-chlorophenyl)-1H-benz[d]imidazol-5-yl)-5-methylisoxazole-4-carboxamide]: at FLT3 [1] (setting [3]), the IC50 lay within 3 to 10 µM.

Regarding `Cc1oncc1C(=O)Nc1cccc2[nH]c(-c3cc(N4CCN(C)CC4)cc(C(F)(F)F)c3)nc12` [Compound 6a], the IC50 on FLT3 [1] (setting [3]) was under 3 µM.

In the case of `Cc1oncc1C(=O)Nc1ccc2[nH]c(-c3ccc(N4CCOCC4)c(C(F)(F)F)c3)nc2c1` [Compound 5c, 5-methyl-N-(2-(4-morpholino-3-(trifluoromethyl)phenyl)-1H-benz[d]imidazol-5-yl)isoxazole-4-carboxamide], the IC50 on FLT3 [1] (setting [3]) was 3 to 10 µM; on FLT3 [1] (setting [4]), 10 µM.

Turning to `Cc1cn(-c2cc(-c3nc4c(NC(=O)c5cnoc5C)cccc4[nH]3)cc(C(F)(F)F)c2)cn1` [Compound 6c, 5-methyl-N-(2-(3-(4-methyl-1H-imidazol-1-yl)-5-(trifluoromethyl)phenyl)-1H-benz[d]imidazol-4-yl)isoxazole-4-carboxamide], the IC50 at FLT3 [1] (setting [3]) was 3 to 10 µM.

Consider `Cc1cn(-c2cc(-c3nc4cc(NC(=O)c5cnoc5C)ccc4[nH]3)cc(C(F)(F)F)c2)cn1` [Compound 5d, 5-methyl-N-(2-(3-(4-methyl-1H-imidazol-1-yl)-5-(trifluoromethyl)phenyl)-1H-benz[d]imidazol-5-yl)isoxazole-4-carboxamide], for which the IC50 at FLT3 [1] (setting [3]) is under 3 µM.

On to `CC(=O)N1CCC(c2nc3cc(NC(=O)c4cnoc4C)ccc3[nH]2)CC1` [Compound 5o, N-(2-(1-acetylpiperidin-4-yl)-1H-benz[d]imidazol-5-yl)-5-methylisoxazole-4-carboxamide], for which, at FLT3 [1] (setting [3]), the IC50 is over 10 µM.

`Cc1oncc1C(=O)Nc1ccc2[nH]c(-c3cc(N4CCN(C)CC4)cc(C(F)(F)F)c3)nc2c1` [Compound 5a, 5-methyl-N-(2-(3-(4-methylpiperazin-1-yl)-5-(trifluoromethyl)phenyl)-1H-benz[d]imidazol-5-yl)isoxazole-4-carboxamide]: the results for the inhibition at 10 µM on FMS (read-out: % inhibition rate) and at RAFI were 0% and 8.47%, respectively. Moreover, the “activity against other protein kinases, particularly FMS (in words)” value on FMS (single dose of 10 μM) is “did not exhibit significant activity”. Besides, the “% inhibition rate” value with FLT3 (ITD) is 88.48%; on FLT3 [2] it was 89.97%. Further, the IC50 at FLT3 [1] (setting [3]) was under 3 µM; at FLT3 [1] (setting [4]) it was 0.495 µM.

Turning to `Cc1oncc1C(=O)Nc1ccc2[nH]c(-c3cc(OC4CCN(C)CC4)cc(C(F)(F)F)c3)nc2c1` [Compound 5i, 5-methyl-N-(2-(3-((1-methylpiperidin-4-yl)oxy)-5-(trifluoromethyl)phenyl)-1H-benz[d]imidazol-5-yl)isoxazole-4-carboxamide], the IC50 on FLT3 [1] (setting [3]) lay within 3 to 10 µM.

For the compound `Cc1oncc1C(=O)Nc1ccc2[nH]c(-c3cc(-n4ccnc4C)cc(C(F)(F)F)c3)nc2c1` [Compound 5f, 5-methyl-N-(2-(3-(2-methyl-1H-imidazol-1-yl)-5-(trifluoromethyl)phenyl)-1H-benz[d]imidazol-5-yl)isoxazol-4-carboxamide], the IC50 on FLT3 [1] (setting [3]) is over 10 µM.

Turning to `Cc1oncc1C(=O)Nc1cccc2[nH]c(-c3ccc(N4CCOCC4)c(C(F)(F)F)c3)nc12` [Compound 6b, 5-methyl-N-(2-(4-morpholino-3-(trifluoromethyl)phenyl)-1H-benz[d]imidazol-4-yl)isoxazole-4-carboxamide], the IC50 on FLT3 [1] (setting [3]) was over 10 µM.

As for `CCN1CCN(Cc2cc(-c3nc4cc(NC(=O)c5cnoc5C)ccc4[nH]3)cc(C(F)(F)F)c2)CC1` [Compound 5m, N-(2-(3-((4-ethylpiperazin-1-yl)methyl)-5-(trifluoromethyl)phenyl)-1H-benz[d]imidazol-5-yl)-5-methylisoxazole-4-carboxamide], the IC50 on FLT3 [1] (setting [3]) lay in the range of 3 to 10 µM.

Turning to `O=C(Nc1ccc2[nH]nc(-c3ccncc3)c2c1)[C@@H]1CCN(CC(=O)N2CCN(c3ccc(-c4ncccn4)cc3)CC2)C1` [SCH772984, reference compound], the IC50 at FGFR3 stood at 0.0147 µM.

In the case of `Cc1oncc1C(=O)Nc1ccc2[nH]c(-c3ccc(Cl)c(C(F)(F)F)c3)nc2c1` [Compound 5k, N-(2-(4-chloro-3-(trifluoromethyl)phenyl)-1H-benz[d]imidazol-5-yl)-5-methylisoxazole-4-carboxamide], the IC50 on FLT3 [1] (setting [3]) was in the range of 3 to 10 µM.

Regarding `Cc1oncc1C(=O)Nc1ccc2[nH]c(-c3cc(-n4cncc4C)cc(C(F)(F)F)c3)nc2c1` [Compound 5e, 5-methyl-N-(2-(3-(5-methyl-1H-imidazol-1-yl)-5-(trifluoromethyl)phenyl)-1H-benz[d]imidazol-5-yl)isoxazole-4-carboxamide], the IC50 at FLT3 [1] (setting [3]) was under 3 µM.

What is called IC50 is the concentration needed to halve the response being measured. The term inhibition denotes the percentage by which the read-out fell short of the control.
